# Assay results published in US20090170759A1, “NEUROPROTECTIVE PEPTIDES” (priority 2007, published 2009).
# What was measured:
# [1] = tested on: rat cerebral cortical cultures; assay: Neurite outgrowth assay (MAP2-FITC immunofluorescence), cortical cultures; type: cell-based
# From the text: Dissociated hippocampal and cortical cell cultures were established from embryonic day 18 rat fetuses as previously described (Mattson et al., 1994). Briefly, fetuses were removed via cesarean section from pregnant moms (Sprague-Dawley) anesthetized with halothane according to the AVMA Panel on Euthanasia. Pups were decapitated and the brains were removed and placed in HEPES-buffered Hank's Balanced Salt solution (HBSS; Gibco). The hippocampi and cortices were dissected out and pooled according to tissue-type. Tissue was trypsinized for 15 min (1 mg/ml trypsin-HBSS; Worthington), rinsed with fresh HBSS, incubated in trypsin inhibitor (1 mg/ml; Sigma) for 5 min, rinsed again with fresh HBSS and then triturated in 1 ml fresh HBSS with a fire-polished glass pipette. Dissociated cells were seeded at 30,000 cells/well onto poly-D-lysine coated 96-well plates (Collaborative BioScience). Each well contained 100 μl of Eagle's Minimal Essential Media (MEM; Gibco) supplemented with 26 mM NaHCO3 (Sigma), 56 mM glucose (Sigma), 15 mM KCl (Sigma), 1 mM sodium pyruvate (Sigma), 1.1 mM L-glutamine (Sigma), 10% (v/v) heat-inactivated fetal bovine serum (Hyclone), and 0.001% gentamicin sulfate (Sigma) (pH 7.4). Cells were allowed to attach for 24 h in a humidified 37° C. 5% CO2 incubator before experimental treatment. The culture media was aspirated and exchanged with fresh media every three days.
# Twenty-four hours after plating, cultures were treated with vehicle (PBS+0.1% BSA), 100 ng of various growth factors (brain derived neurotrophic factor (BDNF; Promega), glial-derived neurotrophic factor (GDNF; Promega), nerve growth factor (NGF; Boehringer Mannheim), basic fibroblast growth factor (bFGF; Boehringer Mannheim), insulin-like growth factor-1 (IGF-1; Boehringer Mannheim), neurotrophin-3 (NT3; Calbiochem), neurotrophin-4 (NT4; Calbiochem), ciliary neurotrophic factor (CNTF; Calbiochem), epidermal growth factor (EGF; Calbiochem), vascular endothelial growth factor (VEGF; Calbiochem)), or rhEPO (prepared same as above; 10 fM-10 nM)). Each treatment condition was run in quadruplicate or octuplicate. On the third day in culture, the media was aspirated off and replaced with fresh media and test compound. At one week in culture, the cells were fixed with 10% phosphate-buffered formalin for 15 min, then rinsed with DPBS (Sigma) and placed in blocking serum for 30 min (horse serum; 1:50 dilution in DPBS; Vector Labs). Cultures were rinsed again with DPBS and then incubated in primary antibody for 2 hr (microtubule-associated protein-2 (MAP-2) is a selective marker for dendritic processes; anti-mouse monoclonal (Chemicon); 1:1000 dilution of MAP-2 in antibody diluent (Zymed)). Negative control wells were incubated in antibody diluent alone. Background signal was determined by blank wells (cell-free) incubated with or without antibody. Cultures were rinsed again with DPBS and then placed in fluorescein for 1 hr (FITC; anti-mouse IgG; rat adsorbed; 1:50 dilution in DPBS; Vector Labs). Cultures were rinsed a final time with DPBS and then the plates were read on a Cytofluor 4000 fluorescence plate reader. Neurite outgrowth was expressed as percent change from control (vehicle; mean fluorescence±SD).
# Dissociated hippocampal and cortical cell cultures were established from embryonic day 18 rat fetuses as previously described (Mattson et al., 1994). Briefly, fetuses were removed via cesarean section from pregnant moms (Sprague-Dawley) anesthetized with halothane according to the AVMA Panel on Euthanasia. Pups were decapitated and the brains were removed and placed in HEPES-buffered Hank's Balanced Salt solution (HBSS; Gibco). The hippocampi and cortices were dissected out and pooled according to tissue-type. […]
# bclXL = assay: EPO induced gene expression in PC12 cells, quantitative RT-PCR (bclXL); type: cell-based, rat; details: PC-12 cells
# Experimental: PC-12 cells (from a rat Pheochromocytoma) were cultured on poly-D-Lysine coated tissue culture plastic in DMEM containing 10% FBS and 5% Horse serum. To induce the neuronal phenotype in PC-12 cells, serum was removed and the cells were treated with NGF (50 ng/ml). Cells were grown for 7 days in the presence of the NGF then used for experiments.
# PC-12 cells were cultured as described in Example 1 in a 10 cm poly-D-lysine coated tissue culture dish. Cells were incubated in the presence of 1 U/ml of EPO for 24 hr. Total RNA was then isolated using a Qiagen RNAeasy mini prep kit and used for RT-PCR.
# Real time reverse transcription and PCR were performed in a single reaction using a light cycler and an RNA amplification kit from Roche Molecular Biochemicals. RNA was quantitated and added in equal amounts to reaction mix that includes the dsDNA specific dye SYBR green I. Specific PCR reaction products are quantitated by detecting the amount of fluorescence in the reaction at each PCR cycle. Final analysis was performed using the data analysis software included with the light cycler instrument.
substance,measurement,setting,value
"rhEPO: purified, recombinant human EPO (rhEPO), currently formulated and distributed under the trademarks of EPREX, ERYPO, or PROCRIT","neurite outgrowth response over control, cortical cultures","[1]; Example 3, one week in culture",15-29%
same,neurite outgrowth in rat cerebral cortical cultures (in words),[1]; figure legends,promotes neurite outgrowth
same,ability to increase neurite outgrowth in cortical cultures compared with known growth factors,[1]; growth factors at 100 ng,greater than or equal to that of known growth factors
same,increase in the expression of the anti-apoptotic gene bclXL,bclXL; 1 nm EPO for 24 hr (FIG. 3 legend),6 fold
same,increase in the expression of the anti-apoptotic gene bclXL,bclXL; EPO 1 U/ml for 24 hr,6 fold
